For 13 molecules, EC50 results are on record in patent publication US12221444B2, “5,6,7,7a-tetrahydrocyclopenta[f]pyrido[1,2-h][1,7]naphthyridin-11(4bH)-one compounds and methods of use” (GLAXOSMITHKLINE INTELLECTUAL, priority 2017, dated 2025).

In one data set the test system is HepAD38 cells. Description: HepAD38 cells cytotoxicity assay (CellTiter-Glo Luminescent Cell Viability Assay). The data set is classed as cell-based. The following applies: 7 days total treatment, read-out: Cell tox (EC50, ηM). How it is done:
(§1) Example 36 HepAD38 Cells—HBsAg ELISA and Cytotoxicity Assays
(§2) HepAD38 cells are maintained in collagen-coated flasks in cell culture medium (DMEM/F12 containing 10% fetal bovine serum (FBS), GlutaMax-1, penicillin/streptomycin, non-essential amino acids, Na pyruvate, 250 μg/mL geneticin, and 1 μg/mL doxycycline). Compound solutions are prepared in DMSO and compound are serially diluted for final concentrations of 4000, 1000, 250, 62.5, 15.6, 3.91, 0.977, 0.244, 0.061, and 0.015 ηM. The cells are then trypsinized and the cells are plate at 10,000 cells per well. Incubate plates are incubated at 37° C., 5% CO2 for 4 days. Media is replaced with new media with compound treatment. The plates are then incubated at 37° C., 5% CO2 for an additional 3 days for a total treatment time of 7 days. For antiviral response, HBsAg was measured using the HBsAg ELISA kit (International Immuno-diagnostics) with instructions provided. 100 uL of cell media samples was used for ELISA. The absorbance was read on the Spectramax® 384 plate reader (Molecular Devices) at 450 nm. For cell toxicity, the cells were used for CellTiter-Glo® Luminescent Cell Viability Assay reagent (Promega). The luminescence was read on Envision Multilabel Reader (Perkin Elmer). The data was analyzed compared to the DMSO control. % inhibition=(1−(unknown/high control))*100
(§3) The average % inhibition values from duplicate assay plates are then plotted in GraphPad Prism to determine one IC value: Four-parameter logistic curve with equation Y=Bottom+(Top-Bottom)/(1+10^((Log IC50−X)*HillSlope)) pIC50=[…]

The next data set deals with HBs antigens (HBsAg). Description: HepAD38 cells HBsAg ELISA. The data set is classed as cell-based, Hepatitis B virus. The following applies: read-out: HepAD38, HBsAg (EC50), 7 days total treatment, HBsAg ELISA of cell media. How it is done:
as §1, §2, §3

The nature of data set [1]: HepAD38 cells cytotoxicity assay (CellTiter-Glo Luminescent Cell Viability Assay). The data set is classed as cell-based. The conditions noted are these: human, 7 days total treatment, read-out: Cell tox (EC50, ηM). How it is done:
as §1, §2, §3

Bounds are passed on as bounds.

For the molecule `CC(C)(C)C1Cc2cc(OCC3CC3)c(Cl)nc2-c2cc(=O)c(C(=O)O)cn21` (single isomer, unassigned; isomer 1) [Example 30-A, 6-(tert-Butyl)-2-chloro-3-(cyclopropylmethoxy)-10-oxo-6,10-dihydro-5H-pyrido[1,2-h][1,7]naphthyridine-9-carboxylic acid (isomer 1)], the EC50 in the data set on HepAD38 cells was over 4000 nM; in the data set with HBs antigens (HBsAg) it was under 1 nM.
Regarding `CC(C)C1(C)Cc2cc(OCC3CC3)c(Cl)nc2-c2cc(=O)c(C(=O)O)cn21` (single isomer, unassigned; isomer-2) [Example 27, (2-Chloro-3-(cyclopropylmethoxy)-6-isopropyl-6-methyl-10-oxo-5,10-dihydro-6H-pyrido[1,2-h][1,7]naphthyridine-9-carboxylic acid-Isomer-2], the EC50 in the data set with HepAD38 cells was over 4000 nM; in the data set with HBs antigens (HBsAg), over 100 nM.
On the same counts, the results for `COCCCOc1cc2c(nc1C1CC1)-c1cc(=O)c(C(=O)O)cn1C(C)(C(C)C)C2` (single isomer, unassigned; isomer-2) [Example 29, 2-Cyclopropyl-6-isopropyl-3-(3-methoxypropoxy)-6-methyl-10-oxo-5,10-dihydro-6H-pyrido[1,2-h][1,7]naphthyridine-9-carboxylic acid-Isomer-2] are over 4000 nM and 10 to 100 nM.
As for `COCCCOc1cc2c(nc1OC)-c1cc(=O)c(C(=O)O)cn1[C@H](C(C)(C)C)C2` [Example 19, (S)-6-(tert-Butyl)-2-methoxy-3-(3-methoxypropoxy)-10-oxo-6,10-dihydro-5H-pyrido[1,2-h][1,7]naphthyridine-9-carboxylic acid], the EC50 at 7 days in data set [1] is over 4000 nM. The half-maximal effective concentration (EC50) in the data set on HBs antigens (HBsAg) was under 1 nM.
For the molecule `COCCCOc1cc2c(nc1O)-c1cc(=O)c(C(=O)O)cn1[C@H](C(C)(C)C)C2` [Example 20, (S)-6-(tert-Butyl)-2-hydroxy-3-(3-methoxypropoxy)-10-oxo-6,10-dihydro-5H-pyrido[1,2-h][1,7]naphthyridine-9-carboxylic acid], the EC50 at 7 days in data set [1] is over 4000 nM. Further, in the data set with HBs antigens (HBsAg), the EC50 was over 100 nM.
For the molecule `C=C(C)c1nc2c(cc1OCCCOC)C[C@@H](C(C)(C)C)n1cc(C(=O)O)c(=O)cc1-2` [Example 21, (S)-6-(tert-Butyl)-3-(3-methoxypropoxy)-10-oxo-2-(prop-1-en-2-yl)-6,10-dihydro-5H-pyrido[1,2-h][1,7]naphthyridine-9-carboxylic acid], the EC50 at 7 days in data set [1] was over 4000 nM. In the data set on HBs antigens (HBsAg), the EC50 is under 1 nM.
For the molecule `COCCCOc1cc2c(nc1C(C)C)-c1cc(=O)c(C(=O)O)cn1[C@H](C(C)(C)C)C2` [Example 22, (S)-6-(tert-Butyl)-2-isopropyl-3-(3-methoxypropoxy)-10-oxo-6,10-dihydro-5H-pyrido[1,2-h][1,7]naphthyridine-9-carboxylic acid], the EC50 at 7 days in data set [1] is over 4000 nM. The EC50 in the data set on HBs antigens (HBsAg) is under 1 nM.
`COCCCOc1cc2c(nc1Cl)-c1cc(=O)c(C(=O)O)c(C)n1[C@H](C(C)(C)C)C2` [Example 23, (S)-6-(tert-Butyl)-2-chloro-3-(3-methoxypropoxy)-8-methyl-10-oxo-6,10-dihydro-5H-pyrido[1,2-h][1,7]naphthyridine-9-carboxylic acid]: in data set [1], the EC50 at 7 days is over 4000 nM. The EC50 in the data set with HBs antigens (HBsAg) is over 100 nM.
Turning to `COCCCOc1cc2c(nc1CO)-c1cc(=O)c(C(=O)O)cn1[C@H](C(C)(C)C)C2` [Example 24, (S)-6-(tert-Butyl)-2-(hydroxymethyl)-3-(3-methoxypropoxy)-10-oxo-5,10-dihydro-6H-pyrido[1,2-h][1,7]naphthyridine-9-carboxylic acid], the concentration giving a half-maximal response (EC50) at 7 days in data set [1] was over 4000 nM. Also, the EC50 in the data set with HBs antigens (HBsAg) was 1 to 10 nM.
For `COCCCOc1cc2c(nc1C1CC1)-c1c(O)c(=O)c(C(=O)O)cn1[C@H](C(C)(C)C)C2` [Example 25, (S)-6-(tert-Butyl)-2-cyclopropyl-11-hydroxy-3-(3-methoxypropoxy)-10-oxo-5,10-dihydro-6H-pyrido[1,2-h][1,7]naphthyridine-9-carboxylic acid], in data set [1], the EC50 at 7 days is over 4000 nM. For the same molecule, the EC50 with HBs antigens (HBsAg) was under 1 nM.
In the case of `O=C(O)c1cn2c(cc1=O)-c1nc(Cl)c(OCC3CC3)cc1CC21CCC1` [Example 31, 2′-Chloro-3′-(cyclopropylmethoxy)-10′-oxo-5′,10′-dihydrospiro[cyclobutane-1,6′-pyrido[1,2-h][1,7]naphthyridine]-9′-carboxylic acid], the EC50 at 7 days in data set [1] was over 4000 nM. Besides, the EC50 with HBs antigens (HBsAg) lay within 1 to 10 nM.
For `COc1cc2c(nc1OC)-c1cc(=O)c(C(=O)O)cn1C1(CCC1)C2` [Example 32, 2′,3′-Dimethoxy-10′-oxo-5′,10′-dihydrospiro[cyclobutane-1,6′-pyrido[1,2-h][1,7]naphthyridine]-9′-carboxylic acid] the same measures were over 4000 nM and 10 to 100 nM.
Consider `Cc1cc2c(nc1C)CC(C(C)C)n1cc(C(=O)O)c(=O)cc1-2` (centres unmarked) [Example 33, 6-Isopropyl-2,3-dimethyl-10-oxo-5,10-dihydro-6H-pyrido[2,1-f][1,6]naphthyridine-9-carboxylic acid], for which the EC50 at 7 days in data set [1] is over 4000 nM. In addition, the EC50 with HBs antigens (HBsAg) is over 100 nM.
